# From patent publication US9422573B2, “Methods and means for generating microbial disease resistant plants” (VIB VZW, priority 2011, dated 2016)
# Read-outs that look alike come from different tables or passages of the source.
# Experiments:
# A. brassicicola = type: cell-based, Alternaria brassicicola; conditions: for 50% growth inhibitory concentration (IC50): 48 h
# Description: (§1) Next, we assessed the potential antifungal activity of At25 (ARACIN1) and At20 (ARACIN2) by an in vitro antifungal bioassay. Both propeptide and mature forms of At25 and At20 were produced by chemical synthesis (see Materials and Methods) and tested against A. brassicicola, B. cinerea B05-10 and B. cinerea Korea by means of a microtiter broth dilution assay (FIG. 9).
# (§2) 11. Antifungal Activity Assay
# (§3) Synthetic proAt25 peptide, mature At25 peptide, proat20 and mature At20 peptides were purchased from genscript (on the World Wide web at genscript.com). Stock solutions of 2×10^7 spores/ml of Botrytis cinerea B05-10, Botrytis cinerea Korea, Fusarium oxysporum and Alternaria brassicicola were diluted in ½ PDB (12 g/l Potato Dextrose Broth in water) to a final concentration of 2×10^4 spores/ml. After adding 196 μl aliquots of these spore dilutions to 4 μl of 2-fold dilution series of At25 in DMSO (starting from a 100 μg/ml stock solution) in microtiter plates, the plates were incubated on 23° C. for 48 h. DMSO was used as a negative control. Growth of the fungi was evaluated both microscopically and by measuring the OD600. Each fungus was tested in duplicate in the microtiter plates. Additionally, for Alternaria brassicicola this antifungal assay was repeated twice. For each assay, the average OD600 of each dilution and the DMSO control were compared using a t-test.
# B. cinerea B05-10 = type: cell-based, Botrytis cinerea
# Description: as §1, §2, §3
# B. cinerea Korea = type: cell-based, Botrytis cinerea; conditions: for growth inhibition: Korea
# Description: as §1, §2, §3
substance,measurement,setting,value
NH2-SIPDDDMGPAIYTPPSGSCGA PISKYDFQVLAKRPPPCRRPRLENTEDVTHTTRP-COOH [proAt20],growth inhibition,A. brassicicola; 5 μg mL^−1,36.7%
same,50% growth inhibitory concentration (IC50),A. brassicicola,11.32 ± 1.28 µg/mL
same,concentration from which growth inhibition / statistically significant antifungal effect starts,A. brassicicola; A. brassicicola,5 µg/mL
same,growth inhibition,"B. cinerea B05-10; B05-10, 20 μg mL^−1",62%
same,concentration from which statistically significant antifungal effect starts,B. cinerea B05-10; B. cinerea B05-10,20 µg/mL
same,concentration from which statistically significant antifungal effect starts,B. cinerea Korea; B. cinerea Korea,20 µg/mL
same,growth inhibition,B. cinerea Korea; 20 μg mL^−1,64.8%
H-GSCGASIAEFNSSQILAKRAPPCRRPRLQNSEDVTHTTLP-OH (cysteine pairing not given here) [mature At25],50% growth inhibitory concentration (IC50),A. brassicicola,5.46 ± 0.57 µg/mL
same,concentration from which growth inhibition / statistically significant antifungal effect starts,A. brassicicola; A. brassicicola,1 µg/mL
same,growth inhibition,"B. cinerea B05-10; B05-10, 10 μg mL^−1",95.7%
same,50% growth inhibitory concentration (IC50),"B. cinerea B05-10; B05-10, 48 h",3.05 ± 0.25 µg/mL
same,50% growth inhibitory concentration (IC50),"B. cinerea Korea; B. cinerea Korea, 48 h, 23° C., OD600",2.03 ± 0.44 µg
same,growth inhibition,B. cinerea Korea; 10 μg mL^−1,94%
NH2-RRSDTGPDISTPPSGSCGASIAE FNSSQILAKRAPPCRRPRLQNSEDVTHTTLP-COOH (H-RRSDTGPDISTPPSGSCGASIAEFNSSQILAKRAPPCRRPRLQNSEDVTHTTLP-OH; cysteine pairing not given here; listed as Arabidopsis thaliana) [proAt25],inhibitory activity (in words),"A. brassicicola; A. brassicicola, data not shown",no statistically significant inhibitory activities
same,inhibitory activity (in words),"B. cinerea B05-10; B. cinerea B05-10, data not shown",no statistically significant inhibitory activities
same,inhibitory activity (in words),"B. cinerea Korea; B. cinerea Korea, data not shown",no statistically significant inhibitory activities
H-GSCGAPISKYDFQVLAKRPPPCRRPRLENTEDVTHTTRP-OH (cysteine pairing not given here) [mature At20],50% growth inhibitory concentration (IC50),A. brassicicola,1.55 ± 0.11 µg/mL
same,reduction of IC50 value compared with the propeptide (proAt20),"A. brassicicola; A. brassicicola, mature At20 versus proAt20",86%
same,antifungal activity in comparison with proAt20 (in words),B. cinerea B05-10; B. cinerea B05-10,remarkably increased
same,antifungal activity in comparison with proAt20 (in words),B. cinerea Korea; B. cinerea Korea,remarkably increased
